Measured values taken from ChEMBL document CHEMBL6121066, “Structure-Activity Relationship Studies of DNA Methyltransferase 1 Monovalent Degraders” (J Med Chem, 2025).
pIC50: −log10 of the molar value. Calls of active or inactive are those of the source. No cut-off for these calls is given here.

Columns and labels:
[1] = tested on: HCT-116; experiment: Induction of molecular glue effect mediated DNMT1 degradation in human HCT-116 cells assessed as reduction in DNMT1 protein level at 500 nM measured after 24 hrs by Western blot analysis relative to control; type: cell-based; parameters: scale not given: the % may be the effect or the level left
[2] = molecular target: Histone-lysine N-methyltransferase 2A (Homo sapiens) (UniProt Q03164); experiment: Inhibition of human MLL1 using nucleosomes and SAM as substrate at 1 uM by radioisotope-based MT HotSpot assay relative to control
[3] = tested on: HCT-116; experiment: Induction of molecular glue effect mediated DNMT1 degradation in human HCT-116 cells assessed as reduction in DNMT1 protein level at 100 nM preincubated with lysosome inhibitor CQ for 2 hrs followed by compound addition and measured after 24 hrs by Western blot analysis; type: cell-based
[4] = molecular target: Protein arginine N-methyltransferase 6 (Homo sapiens) (UniProt Q96LA8); experiment: Inhibition of human PRMT6 using GST-GAR and SAM as substrate at 1 uM by radioisotope-based MT HotSpot assay relative to control
[5] = tested on: HCT-116; experiment: Induction of molecular glue effect mediated DNMT1 degradation in human HCT-116 cells transfected with WWP1 siRNA assessed as reduction in DNMT1 protein level at 100 nM measured after 24 hrs by Western blot analysis; type: cell-based
[6] = tested on: HCT-116; experiment: Induction of molecular glue effect mediated DNMT1 degradation in human HCT-116 cells assessed as reduction in DNMT1 protein level at 500 nM measured after 2 hrs by Western blot analysis relative to control; type: cell-based; parameters: scale not given: the % may be the effect or the level left
[7] = tested on: HCT-116; experiment: (§1) Induction of molecular glue effect mediated DNMT1 degradation in human HCT-116 cells assessed as reduction in DNMT1 protein level incubated for 24 hrs by Western blot analysis; type: cell-based
[8] = as §1; type: cell-based; conditions: HCT-116, 24 h
[9] = molecular target: DNA (cytosine-5)-methyltransferase 1 (Homo sapiens, UniProt P26358); experiment: Inhibition of human DNMT1 (350 to 1600 residues) extracted from Escherichia coli BL21 (DE3)-codon plus-RIL cells in presence of SAM and hemimethylated DNA
[10] = tested on: HCT-116; experiment: Induction of molecular glue effect mediated DNMT1 degradation in human HCT-116 cells assessed as reduction in DNMT1 protein level at 100 nM preincubated with TAK-243 for 2 hrs followed by compound addition and measured after 24 hrs by Western blot analysis; type: cell-based
[11] = tested on: HCT-116; experiment: Effect on DNMT1 mRNA level in human HCT-116 cells at 500 nM incubated for 24 hrs by RT-qPCR analysis; type: functional, cell-based
[12] = tested on: HCT-116; experiment: Induction of molecular glue effect mediated DNMT1 degradation in human HCT-116 cells transfected with Smurf2 siRNA assessed as reduction in DNMT1 protein level at 100 nM measured after 24 hrs by Western blot analysis; type: cell-based
[13] = tested on: HCT-116; experiment: Induction of molecular glue effect mediated DNMT1 degradation in human HCT-116 cells assessed as reduction in DNMT1 protein level at 100 nM preincubated with MG132 for 2 hrs followed by compound addition and measured after 24 hrs by Western blot analysis; type: cell-based
[14] = molecular target: T1, Histone-lysine N-methyltransferase EHMT2 (Homo sapiens) (UniProt Q96KQ7); experiment: Inhibition of human G9a using histone H3 and SAM as substrate at 1 uM by radioisotope-based MT HotSpot assay relative to control
T1 sequence (whole entry): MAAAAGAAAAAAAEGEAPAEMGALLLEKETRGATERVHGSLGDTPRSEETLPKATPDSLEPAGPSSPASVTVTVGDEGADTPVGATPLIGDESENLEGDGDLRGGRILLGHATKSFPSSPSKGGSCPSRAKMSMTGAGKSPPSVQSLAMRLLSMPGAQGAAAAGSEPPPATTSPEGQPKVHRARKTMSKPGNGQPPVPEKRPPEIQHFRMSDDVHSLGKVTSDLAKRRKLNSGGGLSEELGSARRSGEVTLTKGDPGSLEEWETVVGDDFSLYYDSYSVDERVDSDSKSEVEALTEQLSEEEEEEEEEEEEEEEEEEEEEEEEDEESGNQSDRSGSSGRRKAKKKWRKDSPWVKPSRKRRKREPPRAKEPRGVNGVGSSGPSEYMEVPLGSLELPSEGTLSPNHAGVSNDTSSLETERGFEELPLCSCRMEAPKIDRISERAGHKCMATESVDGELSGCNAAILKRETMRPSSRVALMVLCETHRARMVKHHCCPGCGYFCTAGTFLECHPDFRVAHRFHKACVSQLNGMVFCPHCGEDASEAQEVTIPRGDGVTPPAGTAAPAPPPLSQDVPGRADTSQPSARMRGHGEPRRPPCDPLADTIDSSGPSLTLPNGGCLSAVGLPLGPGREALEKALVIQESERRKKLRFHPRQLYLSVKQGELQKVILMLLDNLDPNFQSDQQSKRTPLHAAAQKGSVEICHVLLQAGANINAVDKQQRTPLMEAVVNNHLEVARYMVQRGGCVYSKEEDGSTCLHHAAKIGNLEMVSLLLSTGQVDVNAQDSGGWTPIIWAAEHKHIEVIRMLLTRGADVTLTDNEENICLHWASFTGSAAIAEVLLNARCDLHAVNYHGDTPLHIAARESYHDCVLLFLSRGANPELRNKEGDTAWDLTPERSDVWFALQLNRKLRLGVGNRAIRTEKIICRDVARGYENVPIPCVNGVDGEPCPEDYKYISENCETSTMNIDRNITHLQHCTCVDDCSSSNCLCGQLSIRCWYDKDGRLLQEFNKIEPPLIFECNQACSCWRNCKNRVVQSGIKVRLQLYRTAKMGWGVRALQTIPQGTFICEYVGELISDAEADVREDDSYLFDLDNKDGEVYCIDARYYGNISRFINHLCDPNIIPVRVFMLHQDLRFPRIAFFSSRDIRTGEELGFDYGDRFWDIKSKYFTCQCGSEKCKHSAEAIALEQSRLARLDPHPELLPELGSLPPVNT

[15] = tested on: HCT-116; experiment: Downregulation of DNMT1 protein level in human HCT-116 cells at 1 uM incubated for 12 hrs by MS-based global proteomic analysis; type: functional, cell-based
[16] = molecular target: Protein arginine N-methyltransferase 1 (Homo sapiens) (UniProt Q99873); experiment: Inhibition of human PRMT1 using histone H4 and SAM as substrate at 1 uM by radioisotope-based MT HotSpot assay relative to control
[17] = tested on: HCT-116; experiment: Induction of molecular glue effect mediated DNMT1 degradation in human HCT-116 cells assessed as reduction in DNMT1 protein level at 100 nM preincubated with MLN4924 for 2 hrs followed by compound addition and measured after 24 hrs by Western blot analysis; type: cell-based
[18] = molecular target: DNA (cytosine-5)-methyltransferase 3A (Homo sapiens) (UniProt Q9Y6K1); experiment: Inhibition of human DNMT3A using lambda DNA and SAM as substrate at 1 uM by radioisotope-based MT HotSpot assay relative to control
[19] = tested on: MDA-MB-468; experiment: Induction of molecular glue effect mediated DNMT1 degradation in human MDA-MB-468 cells assessed as reduction in DNMT1 protein level at 100 nM preincubated with MLN4924 for 2 hrs followed by compound addition and measured after 24 hrs by Western blot analysis; type: cell-based

Chain of Histone-lysine N-methyltransferase 2A (Homo sapiens) (Q03164 1-2718 limits assumed): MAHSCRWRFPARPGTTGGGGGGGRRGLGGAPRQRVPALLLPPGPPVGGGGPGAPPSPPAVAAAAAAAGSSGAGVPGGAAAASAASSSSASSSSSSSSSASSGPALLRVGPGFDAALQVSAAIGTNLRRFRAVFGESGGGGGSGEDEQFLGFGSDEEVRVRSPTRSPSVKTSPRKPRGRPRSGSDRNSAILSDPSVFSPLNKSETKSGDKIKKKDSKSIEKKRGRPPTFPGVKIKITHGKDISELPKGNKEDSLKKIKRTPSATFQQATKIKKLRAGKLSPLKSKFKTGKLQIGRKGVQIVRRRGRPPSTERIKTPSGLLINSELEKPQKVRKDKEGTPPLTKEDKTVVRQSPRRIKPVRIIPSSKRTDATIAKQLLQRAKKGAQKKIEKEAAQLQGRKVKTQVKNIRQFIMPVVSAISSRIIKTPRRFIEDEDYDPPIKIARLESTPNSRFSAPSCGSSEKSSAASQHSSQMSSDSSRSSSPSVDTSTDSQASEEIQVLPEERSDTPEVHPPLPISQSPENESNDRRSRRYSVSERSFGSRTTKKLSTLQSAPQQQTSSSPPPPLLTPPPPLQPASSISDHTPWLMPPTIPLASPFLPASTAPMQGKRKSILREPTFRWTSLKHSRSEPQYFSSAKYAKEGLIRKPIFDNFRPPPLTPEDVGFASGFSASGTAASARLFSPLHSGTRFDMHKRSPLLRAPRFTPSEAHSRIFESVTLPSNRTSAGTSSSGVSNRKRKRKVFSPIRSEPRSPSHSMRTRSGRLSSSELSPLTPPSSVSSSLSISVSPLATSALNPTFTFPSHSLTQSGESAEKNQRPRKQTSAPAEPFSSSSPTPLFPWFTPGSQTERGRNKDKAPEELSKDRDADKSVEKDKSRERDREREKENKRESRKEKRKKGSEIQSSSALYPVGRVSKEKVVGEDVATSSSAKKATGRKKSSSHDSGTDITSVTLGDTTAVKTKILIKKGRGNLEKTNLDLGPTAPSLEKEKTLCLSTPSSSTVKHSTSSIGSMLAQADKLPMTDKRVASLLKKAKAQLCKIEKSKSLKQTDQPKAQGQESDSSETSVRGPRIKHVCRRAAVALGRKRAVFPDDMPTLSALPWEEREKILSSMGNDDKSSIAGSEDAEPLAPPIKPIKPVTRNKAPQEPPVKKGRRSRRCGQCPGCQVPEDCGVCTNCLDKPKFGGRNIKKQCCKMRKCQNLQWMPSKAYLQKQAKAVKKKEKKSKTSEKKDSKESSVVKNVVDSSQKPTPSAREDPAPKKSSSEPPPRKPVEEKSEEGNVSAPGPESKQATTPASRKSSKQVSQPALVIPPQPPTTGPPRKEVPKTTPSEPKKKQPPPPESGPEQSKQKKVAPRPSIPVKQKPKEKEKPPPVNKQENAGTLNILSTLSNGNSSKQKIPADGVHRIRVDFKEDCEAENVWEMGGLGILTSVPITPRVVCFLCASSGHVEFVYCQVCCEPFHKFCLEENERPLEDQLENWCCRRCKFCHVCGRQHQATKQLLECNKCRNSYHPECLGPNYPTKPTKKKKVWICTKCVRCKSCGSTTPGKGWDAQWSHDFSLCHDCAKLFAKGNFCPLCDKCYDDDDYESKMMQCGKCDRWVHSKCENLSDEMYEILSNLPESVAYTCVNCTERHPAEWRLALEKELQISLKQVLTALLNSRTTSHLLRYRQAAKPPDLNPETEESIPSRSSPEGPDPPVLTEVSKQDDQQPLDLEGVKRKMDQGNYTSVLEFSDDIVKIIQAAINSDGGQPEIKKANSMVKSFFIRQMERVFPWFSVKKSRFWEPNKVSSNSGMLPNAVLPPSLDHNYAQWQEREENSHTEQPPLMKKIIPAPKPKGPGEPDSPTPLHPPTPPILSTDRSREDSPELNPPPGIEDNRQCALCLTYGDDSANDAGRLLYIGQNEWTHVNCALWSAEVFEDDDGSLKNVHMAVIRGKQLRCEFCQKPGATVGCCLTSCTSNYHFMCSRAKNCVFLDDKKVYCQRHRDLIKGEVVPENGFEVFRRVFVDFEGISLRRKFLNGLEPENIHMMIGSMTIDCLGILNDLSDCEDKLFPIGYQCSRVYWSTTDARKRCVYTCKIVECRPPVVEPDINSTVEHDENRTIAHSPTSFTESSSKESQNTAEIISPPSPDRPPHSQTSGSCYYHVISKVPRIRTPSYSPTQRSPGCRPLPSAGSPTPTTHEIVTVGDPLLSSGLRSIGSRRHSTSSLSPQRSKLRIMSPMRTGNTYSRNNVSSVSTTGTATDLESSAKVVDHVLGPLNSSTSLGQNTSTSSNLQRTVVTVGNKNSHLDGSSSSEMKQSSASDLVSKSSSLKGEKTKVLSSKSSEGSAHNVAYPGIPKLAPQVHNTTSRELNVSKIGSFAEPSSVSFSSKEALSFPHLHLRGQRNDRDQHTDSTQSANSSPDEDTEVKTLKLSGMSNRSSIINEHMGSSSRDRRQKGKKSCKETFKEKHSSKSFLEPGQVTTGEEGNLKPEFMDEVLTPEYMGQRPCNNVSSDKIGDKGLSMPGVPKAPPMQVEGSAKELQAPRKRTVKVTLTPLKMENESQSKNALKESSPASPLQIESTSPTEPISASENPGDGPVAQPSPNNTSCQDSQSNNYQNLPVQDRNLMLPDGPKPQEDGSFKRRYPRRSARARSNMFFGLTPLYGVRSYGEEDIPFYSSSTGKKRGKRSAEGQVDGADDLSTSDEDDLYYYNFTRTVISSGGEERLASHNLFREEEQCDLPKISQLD
Chain of Histone-lysine N-methyltransferase 2A (Homo sapiens) (Q03164 2719-3969 limits assumed): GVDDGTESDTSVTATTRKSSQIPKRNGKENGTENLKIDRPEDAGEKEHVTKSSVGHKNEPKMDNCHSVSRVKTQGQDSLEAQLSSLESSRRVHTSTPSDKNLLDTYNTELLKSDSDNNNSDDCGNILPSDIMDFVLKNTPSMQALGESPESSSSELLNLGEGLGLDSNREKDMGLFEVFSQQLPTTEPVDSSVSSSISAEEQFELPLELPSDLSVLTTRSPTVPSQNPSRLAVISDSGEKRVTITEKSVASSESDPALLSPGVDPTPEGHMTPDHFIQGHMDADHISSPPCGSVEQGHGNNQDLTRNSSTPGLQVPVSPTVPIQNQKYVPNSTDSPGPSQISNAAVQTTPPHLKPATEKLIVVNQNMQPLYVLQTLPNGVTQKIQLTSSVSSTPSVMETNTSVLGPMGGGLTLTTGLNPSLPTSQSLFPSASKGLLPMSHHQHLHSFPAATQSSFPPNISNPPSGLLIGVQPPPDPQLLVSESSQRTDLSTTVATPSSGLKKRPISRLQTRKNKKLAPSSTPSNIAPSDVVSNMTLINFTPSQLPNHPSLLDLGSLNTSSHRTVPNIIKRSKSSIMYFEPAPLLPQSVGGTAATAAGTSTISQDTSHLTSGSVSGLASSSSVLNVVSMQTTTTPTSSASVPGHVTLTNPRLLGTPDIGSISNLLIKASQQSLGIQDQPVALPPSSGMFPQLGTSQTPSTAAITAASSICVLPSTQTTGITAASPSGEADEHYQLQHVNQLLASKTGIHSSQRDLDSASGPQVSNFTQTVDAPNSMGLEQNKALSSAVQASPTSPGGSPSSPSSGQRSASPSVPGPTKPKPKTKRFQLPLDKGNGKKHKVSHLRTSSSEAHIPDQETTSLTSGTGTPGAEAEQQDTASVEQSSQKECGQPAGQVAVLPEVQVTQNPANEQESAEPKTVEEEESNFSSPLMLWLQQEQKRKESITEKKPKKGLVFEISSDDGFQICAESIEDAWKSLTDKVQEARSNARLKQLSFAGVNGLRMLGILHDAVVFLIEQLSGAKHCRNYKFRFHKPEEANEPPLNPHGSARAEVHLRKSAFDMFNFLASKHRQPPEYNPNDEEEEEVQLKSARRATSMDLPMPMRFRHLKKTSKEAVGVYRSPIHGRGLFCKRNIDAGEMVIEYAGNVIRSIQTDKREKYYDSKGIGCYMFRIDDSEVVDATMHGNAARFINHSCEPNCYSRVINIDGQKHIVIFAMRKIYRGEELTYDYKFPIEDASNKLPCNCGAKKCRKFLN
Chain of DNA (cytosine-5)-methyltransferase 3A (Homo sapiens) (Q9Y6K1 whole entry, looked up): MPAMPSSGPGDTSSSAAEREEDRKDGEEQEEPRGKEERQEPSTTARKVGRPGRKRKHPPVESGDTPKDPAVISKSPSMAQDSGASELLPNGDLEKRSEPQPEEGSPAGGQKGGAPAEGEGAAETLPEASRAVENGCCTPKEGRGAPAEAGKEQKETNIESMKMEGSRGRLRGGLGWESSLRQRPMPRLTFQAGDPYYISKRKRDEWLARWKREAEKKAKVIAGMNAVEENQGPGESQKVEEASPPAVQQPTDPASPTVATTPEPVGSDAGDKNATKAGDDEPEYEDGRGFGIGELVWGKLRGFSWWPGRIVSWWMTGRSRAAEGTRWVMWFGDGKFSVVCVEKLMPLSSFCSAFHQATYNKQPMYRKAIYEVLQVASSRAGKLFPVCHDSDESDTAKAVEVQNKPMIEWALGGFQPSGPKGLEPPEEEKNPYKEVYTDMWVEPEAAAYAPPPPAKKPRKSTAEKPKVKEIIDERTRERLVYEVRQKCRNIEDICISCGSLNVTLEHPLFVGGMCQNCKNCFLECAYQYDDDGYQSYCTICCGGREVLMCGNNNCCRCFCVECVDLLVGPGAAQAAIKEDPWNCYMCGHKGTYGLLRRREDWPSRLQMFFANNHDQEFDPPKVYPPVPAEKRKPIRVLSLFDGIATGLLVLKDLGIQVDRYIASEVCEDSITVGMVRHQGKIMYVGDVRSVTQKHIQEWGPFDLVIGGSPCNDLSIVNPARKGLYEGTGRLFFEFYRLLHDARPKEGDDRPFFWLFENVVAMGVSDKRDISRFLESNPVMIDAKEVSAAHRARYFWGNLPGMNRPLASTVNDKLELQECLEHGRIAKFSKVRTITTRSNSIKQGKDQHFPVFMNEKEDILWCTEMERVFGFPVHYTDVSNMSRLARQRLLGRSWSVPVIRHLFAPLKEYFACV

With `CCc1c(C#N)c(SC(C(N)=O)c2ccccc2)nc(N(C)CC(=O)NC)c1C#N` (centres undefined) as the molecule, how does the Activity [1] read?
Its Activity is 100%.

What about the inhibition [2] of the same molecule?
The inhibition was under 20%.

And the Activity [3]?
Its Activity is “Active”.

And the inhibition [4]?
The inhibition was under 20%.

What about the Activity [5] of the same molecule?
Its Activity is “Active”.

And the Activity [6]?
Its Activity is 50%.

And the Activity [7]?
The Activity was “Dose-dependent-effect”.

What about the DC50 [8] of the same molecule?
Its DC50 is 0.035 µM.

And the pIC50 [9]?
Its pIC50 is 6.37.

What about the Activity [10] of the same molecule?
The Activity was “inactive”.

And the Activity [11]?
The Activity was “inactive”.

And the Activity [12]?
Its Activity is “Active”.

What about the Activity [13] of the same molecule?
Its Activity is “inactive”.

And the inhibition [14]?
The inhibition was under 20%.

What about the Activity [15] of the same molecule?
The Activity was “Active”.

What about the inhibition [16] of the same molecule?
Its inhibition is under 20%.

What about the Activity [17] of the same molecule?
The Activity was “Active”.

What about the inhibition [18] of the same molecule?
Its inhibition is under 20%.

What about the Activity [19] of the same molecule?
Its Activity is “Active”.
